From patent publication US4205171A, “Aminomethanobenzazocines and nitromethanobenzazocines” (Sterling Drug Inc., priority 1978, dated 1980)
Structures can show the parent of a compound that is named as a salt. Where two headings read alike, the source gives them in different places.

Legend:
[1] = Irritation at the injection site; format: in vivo; conditions: rabbits
Description: A still further important difference is the comparative irritation at the injection site of pentazocine and the compound of Example 1B. The threshold irritation concentration of the latter in rabbits was 2% and of pentazocine, 0.5%.

[2] = system: acetylcholine-induced writhing; assay: Anti-acetylcholine writhing test (analgesia); format: in vivo, mice; conditions: for ED50: Mus musculus, 20 min, mice; for Oral:Parenteral Potency Ratio: peroral ED50 / subcutaneous ED50, anti-acetylcholine test
Description: In this test the ability of test compounds to prevent acetylcholine-induced writhing in mice is determined. The following is an adaptation of the method of Collier and co-workers (Brit. J. Pharmacol. Chemother., 32, 295(1968)) by Anne K. Pierson. Anti-acetylcholine Writhing Test
This response has also been called writhing. Animals are pretreated with test compounds (20 minutes for both subcutaneous and oral routes) and observed for two minutes immediately following the administration of acetylcholine. Mice not responding during the two-minute observation period are scored protected while those responding one or more times are scored not protected. Test compounds are screened at doses of 75 and 25 milligrams per kilogram subcutaneously or 150 and 50 mlligrams per kilogram orally. […] ED50 values for active compounds are estimated by probit analysis of quantal scores for 4 or more dosage levels using 15 animals per dose. Vehicle-pretreated control animals are tested concurrently with each run of 15 experimental animals.

[3] = system: tail-flick response to thermal stimulus; assay: Tail-flick agonist test; format: in vivo; conditions: rats, subcutaneous; for Tail-flick Agonist ED50: 30 minutes after injection
Description: Rats normally respond to a thermal stimulus applied to the tail by flicking their tails out from under the heat source. The intensity of the stimulus utilized is one which produces control response-times (CRT) of 2-4 seconds. Experimental response-times (ERT) are determined 30 minutes after subcutaneous injections. […] Therefore, the maximum possible increase (MPI) in response-time for any given animal is 20 minus the CRT. The average % effect, or % of the maximum possible increase (%MPI) obtained after any given test compound treatment is calculated by the formula [formula] […] Exptl.

[4] = system: phenazocine (agonist effect in rat tail-flick); assay: Tail-flick antagonist test against phenazocine; conditions: for ED50: Rattus norvegicus, sc, 10 min, read-out: Tail-flick Antagonist AD50
[5] = Intravenous administration in the dog (unconsciousness, heart rate, blood pressure); format: in vivo
[6] = Tests for analgesia, comparison with cyclazocine and pentazocine; format: in vivo; conditions: both subcutaneously and orally
Description: The compound of Example 1B having in the free base form the structural formula [drawing 14] is the preferred species of this invention and the biological properties thereof have been carefully compared with those of pentazocine and cyclazocine.

[7] = po, peroral, read-out: Peroral ED50, anti-acetylcholine test
[8] = sc, subcutaneous, 20 minutes pretreatment, read-out: ED50, anti-acetylcholine writhing test

For `CC(C)=CCN1CCC2(C)c3cc(O)ccc3CC1C2C` (stereo not drawn) [pentazocine, reference compound], the Threshold irritation concentration [1] was 0.5%, the ED50 [2, 7] was 51 mg/kg and the ED50 [2, 8] was 2.2 mg/kg. The “Oral:Parenteral Potency Ratio” value [2] was 23, the “Tail-flick Agonist ED50” value [3] was “Inactive at 120” and the ED50 [4] was 6.3 mg/kg. The Unconsciousness [5] was “without unconsciousness”, the Convulsions ([5]; single dose tested) was “induced convulsions” and the “Potency relative to the compound of Example 1B in the tests for analgesia” value [6] was “significantly less potent”.

In the case of `CC(C)CN1CC[C@@]2(C)c3cc(N)ccc3C[C@@H]1[C@@H]2C` (relative stereo) [Example 5C, 8-amino-1,2,3,4,5,6-hexahydro-3-isobutyl-cis-6,11-dimethyl-2,6-methano-3-benzazocine dihydrochloride], the ED50 [2, 8] is reported as 1.5 mg/kg and the ED50 [4] is reported as 9.4 mg/kg.

In the case of `C[C@H]1[C@H]2Cc3ccc(O)cc3[C@]1(C)CCN2CC1CC1` (relative stereo) [cyclazocine, reference compound], the ED50 [2, 7] is reported as 5.3 mg/kg, the ED50 [2, 8] is reported as 0.15 mg/kg and the “Oral:Parenteral Potency Ratio” value [2] is reported as 35. For the same compound, the “Tail-flick Agonist ED50” value [3] was “Inactive at 120”, the ED50 [4] was 0.028 mg/kg and the “Heart rate and blood pressure” value [5] was “increases in heart rate and blood pressure”. For the same compound, the Unconsciousness [5] was “produced unconsciousness”.

Work on `C=CCN1CC[C@@]2(C)c3cc(N)ccc3C[C@@H]1[C@@H]2C` (relative stereo) [Example 8C, 8-amino-1,2,3,4,5,6-hexahydro-cis-6,11-dimethyl-3-(2-propenyl)-2,6-methano-3-benzazocine dihydrochloride] yielded an ED50 [2, 8] of 2.5 mg/kg and an ED50 [4] of 1.5 mg/kg.

In the case of `C[C@H]1[C@H]2Cc3ccc(NCC4CC4)cc3[C@]1(C)CCN2CC1CC1` (relative stereo) [Example 2E, 3-(cyclopropylmethyl)-8-(cyclopropylmethylamino)-1,2,3,4,5,6-hexahydro-cis-6,11-dimethyl-2,6-methano-3-benzazocine hydrochloride], the ED50 [2, 8] is reported as 0.7 mg/kg and the ED50 [4] is reported as 8 mg/kg.

`CCCCNc1ccc2c(c1)[C@]1(C)CCN(CC3CC3)[C@H](C2)[C@@H]1C` (relative stereo) [Example 11B, 8-(butylamino)-3-(cyclopropylmethyl)-1,2,3,4,5,6-hexahydro-cis-6,11-dimethyl-2,6-methano-3-benzazocine] gave an ED50 [2, 8] of 1 mg/kg.

In the case of `CCCNc1ccc2c(c1)[C@]1(C)CCN(CC3CC3)[C@H](C2)[C@@H]1C` (relative stereo) [Example 10B, 3-(cyclopropylmethyl)-1,2,3,4,5,6-hexahydro-cis-6,11-dimethyl-8-(propylamino)-2,6-methano-3-benzazocine], the ED50 [2, 8] is reported as 1.2 mg/kg, the “Tail-flick Antagonist % Antagonism” value ([4]; rats, subcutaneous, against phenazocine, at 5 mg./kg., different sample) is reported as 32% and the “Tail-flick Antagonist % Antagonism” value ([4]; rats, subcutaneous, against phenazocine, at 40 mg./kg.) is reported as 31%.

With `C[C@H]1[C@H]2Cc3ccc(N)cc3[C@]1(C)CCN2C` (relative stereo) [Formula G, α-2'-amino-2,5,9-trimethyl-6,7-benzomorphan, reference compound] the ED50 [2, 8] was 7.5 mg/kg, the “Tail-flick Agonist ED50” value [3] was “Inactive at 120” and the Narcotic antagonist activity ([4]; rat, in vivo) was “not a narcotic antagonist”. The “Tail-flick Antagonist AD50” value ([4]; rats, subcutaneous, against phenazocine) was “Inactive at 80”.

With `CNc1ccc2c(c1)[C@]1(C)CCN(CC3CC3)[C@H](C2)[C@@H]1C` (relative stereo) [Example 3B, 3-(cyclopropylmethyl)-1,2,3,4,5,6-hexahydro-cis-6,11-dimethyl-8-(methylamino)-2,6-methano-3-benzazocine dihydrochloride ethanolate hydrate] the ED50 [2, 8] was 0.44 mg/kg, the “Tail-flick Agonist % MPI” value ([3]; at 120 mg./kg.) was 35% and the ED50 [4] was 1.3 mg/kg.

`CC[C@H]1[C@H]2Cc3ccc(N)cc3[C@]1(CC)CCN2CC1CC1` (relative stereo) [Example 12H, 8-amino-3-(cyclopropylmethyl)-cis-6,11-diethyl-1,2,3,4,5,6-hexahydro-2,6-methano-3-benzazocine dihydrochloride] gave an ED50 [2, 8] of 1.3 mg/kg and an ED50 [4] of 3.8 mg/kg.

In the case of `CCNc1ccc2c(c1)[C@]1(C)CCN(CC3CC3)[C@H](C2)[C@@H]1C` (relative stereo) [Example 9B, 3-(cyclopropylmethyl)-8-(ethylamino)-1,2,3,4,5,6-hexahydro-cis-6,11-dimethyl-2,6-methano-3-benzazocine], the ED50 [2, 8] is reported as 1.3 mg/kg, the “Tail-flick Agonist % MPI” value ([3]; at 60 mg./kg.) is reported as 25% and the “Tail-flick Agonist % MPI” value ([3]; at 120 mg./kg., different sample) is reported as 21%. The ED50 [4] was 10 mg/kg and the “Tail-flick Antagonist % Antagonism” value ([4]; rats, subcutaneous, against phenazocine, at 80 mg./kg., different sample) was 19%.

In the case of `C[C@H]1[C@H]2Cc3ccc(N(C)C)cc3[C@]1(C)CCN2CC1CC1` (relative stereo) [Example 4F, 3-cyclopropylmethyl-8-dimethylamino-cis-6,11-dimethyl-1,2,3,4,5,6-hexahydro-2,6-methano-3-benzazocine dihydrochloride], the ED50 [2, 8] is reported as 0.79 mg/kg, the “Tail-flick Agonist % MPI” value ([3]; at 60 mg./kg.) is reported as 43% and the “Tail-flick Antagonist % Antagonism” value ([4]; rats, subcutaneous, against phenazocine, at 10 mg./kg.) is reported as 30%. The “Tail-flick Antagonist % Antagonism” value ([4]; rats, subcutaneous, against phenazocine, at 80 mg./kg.) was 32%.

For `CCCN1CC[C@@]2(C)c3cc(N)ccc3C[C@@H]1[C@@H]2C` (relative stereo) [Example 6C, 8-amino-cis-6,11-dimethyl-1,2,3,4,5,6-hexahydro-3-propyl-2,6-methano-3-benzazocine dihydrochloride sesquihydrate], the ED50 [2, 8] was 5.6 mg/kg, the “Tail-flick Agonist ED50” value [3] was “Inactive at 60” and the ED50 [4] was 2 mg/kg.

In the case of `C[C@H]1[C@H]2Cc3ccc(N)cc3[C@]1(C)CCN2CC1CC1` (relative stereo) [Example 1B, 8-amino-3-(cyclopropylmethyl)-1,2,3,4,5,6-hexahydro-cis-6,11-dimethyl-2,6-methano-3-benzazocine dihydrochloride], the Threshold irritation concentration [1] is reported as 2%, the ED50 [2, 7] is reported as 3.2 mg/kg and the ED50 [2, 8] is reported as 0.8 mg/kg. For the same compound, the “Oral:Parenteral Potency Ratio” value [2] was 4, the ED50 [4] was 2.7 mg/kg and the “Heart rate and blood pressure” value [5] was “without compromising heart rate or blood pressure”. The Salivation and tremors [5] was “Salivation and tremors were observed” and the Unconsciousness [5] was “produced unconsciousness equivalent to a light plane of anesthesia”.

With `C[C@H]1[C@H]2Cc3ccc(NCc4ccccc4)cc3[C@]1(C)CCN2CC1CC1` (relative stereo) [Example 7, 3-(cyclopropylmethyl)-1,2,3,4,5,6-hexahydro-cis-6,11-dimethyl-8-benzylamino-2,6-methano-3-benzazocine dihydrochloride] the ED50 [2, 8] was 1.6 mg/kg and the ED50 [4] was 1 mg/kg.
